Test results from patent publication US20060110790A1, “Expression system for large functional proteins” (priority 2002, published 2006).

Target: T1, ABCR K939M, K1978M and K939M/K1978M mutants (Homo sapiens, UniProt P78363, K1978M/K969M)
T1 construct: made in house
Assay: ATPase activity of Walker A lysine-to-methionine mutants
Assay type: biochemical
Details: 50 μM all-trans retinal
Experimental: FIG. 4. Lysine to methionine Walker A mutations in ABCR abolish ATP hydrolysis but not ATP binding. A. ATPase activity was measured in the absence (white bars) or presence of 50 μM all-trans retinal (grey bars). WT, wild-type; K969M in NBD1; K1978M in NBD2; MM, K969M/K1978M double mutant; NCM, N-half co-expressed with C-half containing a K1978M mutation. B. ATP photoaffinity labeling was carried out by irradiating membranes from COS-1 cells expressing wild-type (WT), K969M, K1978M, or K969M/K1978M double mutant (MM) with 3 μM 8-azido-[α-^32P]ATp. The labeled protein was isolated with Rim3F4-Sepharose and separated on SDS gels. Left panel: gel stained with Coomassie blue. Right panel: corresponding ^32P labeling obtained with a phosphorimager. All mutant proteins were labeled with 8-azido-[α-^32P]ATP, but the double mutant bound less nucleotide.
ATPase activity was measured as described previously (Ahn, J., Wong, J. T., and Molday, R. S. (2000) J Biol Chem 275(27), 20399-405) using 50 μM [α^32P]ATP and thin layer chromatography. The all-trans retinal concentration was determined spectrophotometrically (λ383 nm=42.88 mM^−1 cm^−1). Protein concentration was estimated from the eluate before reconstitution by laser densitometry of Coomassie blue stained gels using bovine serum albumin as a standard. […]

T1 sequence (P78363 whole entry K969M/K1978M): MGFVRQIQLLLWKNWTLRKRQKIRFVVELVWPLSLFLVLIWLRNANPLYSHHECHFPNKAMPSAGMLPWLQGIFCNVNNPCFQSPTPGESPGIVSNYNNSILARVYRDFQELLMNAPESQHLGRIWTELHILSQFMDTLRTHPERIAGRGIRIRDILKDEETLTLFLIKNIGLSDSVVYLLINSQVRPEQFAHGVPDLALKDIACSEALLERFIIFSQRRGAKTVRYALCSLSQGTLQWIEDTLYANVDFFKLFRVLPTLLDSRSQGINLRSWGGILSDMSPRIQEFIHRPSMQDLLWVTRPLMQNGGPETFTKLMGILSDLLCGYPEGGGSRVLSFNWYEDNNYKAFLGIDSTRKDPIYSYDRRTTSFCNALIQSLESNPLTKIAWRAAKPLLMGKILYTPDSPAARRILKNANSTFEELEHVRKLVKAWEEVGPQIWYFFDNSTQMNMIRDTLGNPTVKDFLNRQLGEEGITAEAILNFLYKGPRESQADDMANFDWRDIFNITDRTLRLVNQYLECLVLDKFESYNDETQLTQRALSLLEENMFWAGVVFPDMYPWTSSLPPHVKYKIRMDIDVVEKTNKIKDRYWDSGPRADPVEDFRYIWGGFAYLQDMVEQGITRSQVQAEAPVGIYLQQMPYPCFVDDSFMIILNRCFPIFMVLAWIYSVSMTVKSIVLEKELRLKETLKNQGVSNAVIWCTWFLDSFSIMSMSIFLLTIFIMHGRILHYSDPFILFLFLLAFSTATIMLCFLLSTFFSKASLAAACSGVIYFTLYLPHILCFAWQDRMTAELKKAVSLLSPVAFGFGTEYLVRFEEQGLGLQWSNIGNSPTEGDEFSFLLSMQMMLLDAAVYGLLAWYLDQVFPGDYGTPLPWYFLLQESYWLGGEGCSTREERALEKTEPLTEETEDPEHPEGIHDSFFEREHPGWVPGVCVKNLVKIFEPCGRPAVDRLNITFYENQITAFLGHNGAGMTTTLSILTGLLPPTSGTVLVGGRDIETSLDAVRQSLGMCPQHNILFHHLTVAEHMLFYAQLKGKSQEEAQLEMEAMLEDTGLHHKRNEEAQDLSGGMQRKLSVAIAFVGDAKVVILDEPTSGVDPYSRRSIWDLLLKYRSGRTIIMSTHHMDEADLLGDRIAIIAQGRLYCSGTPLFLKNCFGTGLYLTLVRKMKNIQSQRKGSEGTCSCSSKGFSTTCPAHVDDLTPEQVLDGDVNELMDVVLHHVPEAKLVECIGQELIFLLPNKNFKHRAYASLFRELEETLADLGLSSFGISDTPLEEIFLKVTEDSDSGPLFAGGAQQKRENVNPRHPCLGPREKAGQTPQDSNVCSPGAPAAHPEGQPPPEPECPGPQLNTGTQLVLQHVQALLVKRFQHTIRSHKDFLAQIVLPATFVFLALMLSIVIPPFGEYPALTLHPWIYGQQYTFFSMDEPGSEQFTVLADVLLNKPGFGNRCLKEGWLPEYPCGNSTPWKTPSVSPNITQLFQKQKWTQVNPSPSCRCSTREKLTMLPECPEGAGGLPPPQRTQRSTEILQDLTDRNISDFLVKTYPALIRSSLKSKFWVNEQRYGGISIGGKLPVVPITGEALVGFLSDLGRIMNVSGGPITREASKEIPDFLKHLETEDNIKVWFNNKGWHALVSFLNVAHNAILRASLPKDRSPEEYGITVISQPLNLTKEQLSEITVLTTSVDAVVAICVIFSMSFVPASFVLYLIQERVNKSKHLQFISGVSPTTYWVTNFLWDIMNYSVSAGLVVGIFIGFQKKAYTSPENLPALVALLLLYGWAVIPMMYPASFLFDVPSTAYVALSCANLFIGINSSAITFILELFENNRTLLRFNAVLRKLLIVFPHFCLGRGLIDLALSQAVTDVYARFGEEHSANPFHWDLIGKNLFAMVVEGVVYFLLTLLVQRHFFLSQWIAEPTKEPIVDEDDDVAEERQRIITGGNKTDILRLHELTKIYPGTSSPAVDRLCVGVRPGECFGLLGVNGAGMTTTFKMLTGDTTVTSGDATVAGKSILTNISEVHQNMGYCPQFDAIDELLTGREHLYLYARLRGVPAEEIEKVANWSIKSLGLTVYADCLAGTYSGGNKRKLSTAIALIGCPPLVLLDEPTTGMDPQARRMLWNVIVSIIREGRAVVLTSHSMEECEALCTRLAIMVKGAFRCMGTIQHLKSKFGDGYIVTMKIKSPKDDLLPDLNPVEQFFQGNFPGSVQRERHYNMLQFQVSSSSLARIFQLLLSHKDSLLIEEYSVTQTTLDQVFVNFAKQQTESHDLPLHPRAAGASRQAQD

retinal activation of ATPase activity: abolished retinal activation
SMILES: CC1=C(/C=C/C(C)=C/C=C/C(C)=C/C=O)C(C)(C)CCC1 [all-trans retinal]
